# Source: patent US9622481B2, “Biofilm-removing antimicrobial compositions and uses thereof” (Kane Biotech Inc., priority 2009, dated 2017)
# How the values were obtained:
# Type in all cases: cell-based
# Escherichia coli biofilm [1] = assay: Biofilm formation, crystal violet staining, 96-well microtiter plate (Example 7); conditions: reduction in biofilm formation, OD at 630 nm, 37° C., 24 hours
# Protocol: (§1) An overnight broth culture of E. coli was grown in TSB and used as inoculum. 96-well microtiter plate containing TSB in the absence and presence of each compound separately (SMP or CHX) and together (SMP+CHX) were inoculated. The biofilm was grown by incubating at 37° C. for 24 hours. Growth of planktonic cells based on absorbance at 600 nm using Labsystems Multiskan Ascent microplate reader was determined. Biofilm was measured by discarding the media in the wells, rinsing the well three times with water, and staining the bound cells with crystal violet. The dye was then solubilized with 33% acetic acid, and absorbance at 630 nm was determined using a microtiter plate reader.
# [2] = tested on: Pseudomonas aeruginosa biofilm; assay: Biofilm formation, crystal violet staining, 96-well microplate (Example 8); conditions: reduction in biofilm formation, OD at 630 nm, 24 hours
# Protocol: An overnight broth culture of bacteria and yeast were grown in TSB and used as inoculum. 96-well microplates containing TSB (for gram-positive species and yeast) and colony forming unit antigen medium (for gram-negative bacteria) in the absence and the presence of each compound separately (SMP or CHX) and together (SMP+CHX) were inoculated. The biofilm was grown by incubating at 37° C. (for gram-positive bacteria and yeast) and 26° C. (for gram-negative bacteria) for 24 hours. Growth of planktonic cells based on absorbance at 600 nm using Labsystems Multiskan Ascent microplate reader was determined. Biofilm was measured by discarding the media in the wells, rinsing the well three times with water, and staining the bound cells with crystal violet. The dye was then solubilized with 33% acetic acid, and absorbance at 630 nm was determined using a microtiter plate reader.
# [3] = tested on: Staphylococcus epidermidis biofilm; assay: Biofilm formation, crystal violet staining, 96-well microtiter plate (Example 6); conditions: reduction in biofilm formation, OD at 630 nm, 37° C., 24 hours
# Protocol: as §1, with “S. epidermidis” for “E. coli”, “FU)” for “CHX)”, “(SMP+FU)” for “(SMP+CHX)”
# Escherichia coli biofilm [4] = assay: Biofilm formation, crystal violet staining, 96-well microtiter plate (Example 4); conditions: reduction in biofilm formation, OD at 630 nm, 37° C., 24 hours
# Protocol: as §1, with “FU)” for “CHX)”, “(SMP+FU)” for “(SMP+CHX)”
# [5] = tested on: Staphylococcus epidermidis biofilm; assay: Biofilm formation, crystal violet staining, 96-well microtiter plate (Example 9); conditions: reduction in biofilm formation, OD at 630 nm, 37° C., 24 hours
# Protocol: as §1, with “S. epidermidis” for “E. coli”
# [6] = tested on: Pseudomonas aeruginosa biofilm; assay: Biofilm formation, crystal violet staining, 96-well microtiter plate (Example 5); conditions: reduction in biofilm formation, OD at 630 nm, 37° C., 24 hours
# Protocol: as §1, with “P. aeruginosa” for “E. coli”, “FU)” for “CHX)”, “(SMP+FU)” for “(SMP+CHX)”
# Escherichia coli biofilm [7] = assay: Biofilm formation, crystal violet staining, 96-well microplate (Example 1); conditions: reduction in biofilm formation, OD at 630 nm, 26° C., 24 hours
# Protocol: (§2) An overnight broth culture of E. coli was grown in TSB and used as inoculum. 96-well microplates containing colony forming antigen medium (for […] species) in the absence and the presence of each compound (PS or BZK) separately and together (PS and BZK) were inoculated and incubated at 26° C. for 24 hours. Growth of planktonic cells based on absorbance at 600 nm using Labsystems Multiskan Ascent microplate reader was determined. Biofilm was measured by discarding the media in the wells, rinsing the well three times with water, and staining the bound cells with crystal violet. The dye was then solubilized with 33% acetic acid, and absorbance at 630 nm was determined using a microtiter plate reader.
# [8] = tested on: Pseudomonas aeruginosa biofilm; assay: Biofilm formation, crystal violet staining, 96-well microplate (Example 2); conditions: reduction in biofilm formation, OD at 630 nm, 26°, 24 hours
# Protocol: as §2, with “P. aeruginosa” for “E. coli”, “26°” for “26° C.”
# [9] = tested on: Staphylococcus epidermidis biofilm; assay: Biofilm formation, crystal violet staining, 96-well microplate (Example 3); conditions: reduction in biofilm formation, OD at 630 nm, 37° C., 24 hours
# Protocol: as §2, with “S. epidermidis” for “E. coli”, “TSB,” for “TSB”, “TSB” for “colony forming antigen medium”, “37°” for “26°”
# Escherichia coli = assay: Minimum inhibitory concentration (MIC) in 96-well microtiter plates; conditions: agent alone, TSB, 37° C., 24 hours
# Protocol: (§3) Bacterial strains were grown overnight at 37° C. with 100 rpm shaking in Tryptic Soy Broth (TSB) and diluted to approximately 10^5 CFU/ml. Assays were conducted by methods of minimum inhibitory concentration (MIC) in 96-well microtiter plates as described previously (Amsterdam, D. 1996, In: V. Loman, Ed., “Antibiotics in laboratory medicine”, p. 52-111, Williams and Wilkins, Baltimore, M.D.). Antimicrobials PS and SNP both alone and together were serially diluted in TSB (100 μl), and 100 μl of bacterial suspension was added to each well. Plates were incubated at 37° C. for 24 hours and read at 600 nm using a microtiter plate reader (Multiskan Ascent, Labsystems, Helsinki, Finland).
# S. aureus = assay: as above; conditions: agent alone, TSB, 37° C., 24 hours
# Protocol: as §3
compound,measurement,setting,value
"[Na+].[O-][I+3]([O-])([O-])[O-] [SMP, sodium metaperiodate]",Biofilm Inhibition by SMP,Escherichia coli biofilm [1]; SMP 250 μg/ml alone,0.12 OD
same,Biofilm Inhibition by SMP,[2]; SMP 125 μg/ml alone,0.17 OD
same,Biofilm Inhibition by SMP,[3]; SMP 250 μg/ml alone,0.00 OD
same,Biofilm Inhibition by SMP,Escherichia coli biofilm [4]; SMP 250 μg/ml alone,0.3 OD
same,Biofilm Inhibition by SMP,[5]; SMP 250 μg/ml alone,0.00 OD
same,Biofilm Inhibition by SMP,[6]; SMP 250 μg/ml alone,0.16 OD
benzalkonium chloride [BZK],Biofilm Inhibition by BZK,Escherichia coli biofilm [7]; BZK 6 μg/ml alone,0.14 OD
same,Biofilm Inhibition by BZK,[8]; BZK 12.5 μg/ml alone,0.00 OD
same,Biofilm Inhibition by BZK,[9]; BZK 0.8 μg/ml alone,1.21 OD
"O=c1[nH]cc(F)c(=O)[nH]1 [FU, 5-fluorouracil]",Biofilm Inhibition by FU,[3]; FU 20 μg/ml alone,1.43 OD
same,Biofilm Inhibition by FU,Escherichia coli biofilm [4]; FU 6.25 μg/ml alone,0.17 OD
same,Biofilm Inhibition by FU,[6]; FU 3.75 μg/ml alone,0.00 OD
"[H]/N=C(\N/C(=N/[H])NCCCCCCNC(=N)NC(=N)Nc1ccc(Cl)cc1)Nc1ccc(Cl)cc1 [CHX, chlorhexidine]",Biofilm Inhibition by CHX,Escherichia coli biofilm [1]; CHX 1 μg/ml alone,0.04 OD
same,Biofilm Inhibition by CHX,[2]; CHX 6 μg/ml alone,0.66 OD
same,Biofilm Inhibition by CHX,[5]; CHX 0.5 μg/ml alone,0.00 OD
protamine sulfate [PS],Biofilm Inhibition by PS,Escherichia coli biofilm [7]; PS 12 μg/ml alone,0.04 OD
same,MIC,Escherichia coli,>200 µg/mL
same,MIC,S. aureus,>200 µg/mL
same,Biofilm Inhibition by PS,[8]; PS 25 μg/ml alone,0.00 OD
same,Biofilm Inhibition by PS,[9]; PS 1.5 μg/ml alone,0.34 OD
